US11999712B1, “2-(benzo[b]thiophen-3-yl)-1-butyl-4,5-diphenyl-1H-imidazole as an anti-inflammatory and anti-microbial compound” (KING FAISAL UNIVERSITY, priority 2023, dated 2024)
Values belong to the molecule of their own block, whether it stands above or below them.

How the values were obtained:
E. Coli = assay: antimicrobial activity, agar dilution method; type: cell-based; conditions: after 10, 20, 40 and 60 min at all dilutions 1:100, 1:200, 1:400, 1:800
Procedure: (§1) The antibacterial properties of the synthesized compounds were studied by the method of agar dilution. Test solutions of each compound was prepared in a concentration of 1% using dimethylformamide as a solvent. Then the test solutions were diluted in a physiological solution to obtain the final experimental dilutions of 1:100, 1:200, 1:400, and 1:800. The effect of these substances was compared with furacillin in a controllable study. The testing microbes used were gram positive bacteria St. Aereus, gram negative bacteria E. Coli, and Ps. aeruginosa and Candida albicans fungi. The experiments used for this survey were a meat-pentonlu agar (EPA) for cultivation of bacteria and a Saburo environment for fungi. Each experiment used 1 mL of test solution on each plate for 500 min. Next, 2 drops of emulsified test solution with microbes feel were added. All experimental samples were taken from the agar after 10, 20, 40, 60 minutes in the environment on the basis of Patrk planted. Bacteria were cultivated at a temperature of 37° ° C. for 1 day and the mushroom was kept in a thermostat for […] at a temperature of 28° C. Then results were checked. Results for the control and the antimicrobial activity for the synthesized compounds are listed in Table 1 below. […]

Candida albicans = assay: antimicrobial activity, agar dilution method; type: cell-based; conditions: after 10, 20, 40 and 60 min at all dilutions 1:100, 1:200, 1:400, 1:800
Procedure: as §1

Ps. aeruginosa = assay: antimicrobial activity, agar dilution method; type: cell-based; conditions: after 10, 20, 40 and 60 min at all dilutions 1:100, 1:200, 1:400, 1:800
Procedure: as §1

St. Aereus = assay: antimicrobial activity, agar dilution method; type: cell-based; conditions: after 10, 20, 40 and 60 min at all dilutions 1:100, 1:200, 1:400, 1:800
Procedure: as §1

melting point: 151 to 153 °C
SMILES: CCCCn1c(-c2csc3ccccc23)nc(-c2ccccc2)c1-c1ccccc1 [2-(Benzo[b]thiophen-3-yl)-1-butyl-4,5-diphenyl-1H-imidazole]
inhibition activity (E. Coli): most inhibition activity
inhibition activity (Candida albicans): most inhibition activity
inhibition activity (Ps. aeruginosa): most inhibition activity
inhibition activity (St. Aereus): most inhibition activity

SMILES: CN(C)CCCn1c(-c2cccnc2)nc(-c2ccccc2)c1-c1ccccc1 [3-(4,5-Diphenyl-2-(pyridin-3-yl)-1H-imidazol-1-yl)-N,N-dimethylpropan-1-amine]
inhibition activity (E. Coli): highest inhibition activity
inhibition activity (Candida albicans): highest inhibition activity
inhibition activity (Ps. aeruginosa): highest inhibition activity
inhibition activity (St. Aereus): highest inhibition activity
